Data from PubChem BioAssay AID254 (DTP/NCI, 2004).
Several values for one entry are separate records, joined by “and”; a condition that tells them apart may be missing. Equal values may be shown once. Inconclusive results and toxic doses are left out. Rule for the calls: active = survival T/C of 150% or more; inactive = T/C below 125% in these data.

System: L1210 leukemia iv in BDF1 mice, survival T/C
Assay: NCI In Vivo Anticancer Drug Screen. Data for tumor model L1210 Leukemia (intravenous) in B6D2F1 (BDF1) mice
Conditions: endpoint: mean survival time, higher = longer survival
Experimental: The antitumor activity of compounds was measured in mice bearing transplantable tumors. Survival or tumor size were measured and the results are expressed as the measurement made in the treated group (T) divided by the measurement made in the vehicle treated control group (C). The tumor model used in this assay is L1210 Leukemia (intravenous) in B6D2F1 (BDF1) mice

Measured: T/C

COc1cccc2c1C(=O)c1c(O)c3c(c(O)c1C2=O)C[C@@](O)(C(=O)CO)C[C@@H]3OC1CC(N)C(O)C(C)O1 (stereo partly drawn)
active: dose: 2.5 mg/kg/injection, schedule: Q01DX005 (iv), vehicle: saline 196 % of control
inactive: dose: 0.6 mg/kg/injection, schedule: Q01DX005 (iv), vehicle: clinical formulation 100 % of control | dose: 0.7 mg/kg/injection, schedule: Q01DX009 (ip), vehicle: clinical formulation 97 % of control | dose: 0.7 mg/kg/injection, schedule: Q01DX009 (sc), vehicle: clinical formulation 100 % of control | dose: 0.75 mg/kg/injection, schedule: Q01DX005 (iv), vehicle: saline 90 % of control | dose: 0.9 mg/kg/injection, schedule: Q01DX005 (iv), vehicle: clinical formulation 102 % of control | dose: 1.1 mg/kg/injection, schedule: Q01DX009 (ip), vehicle: clinical formulation 100 % of control | dose: 1.1 mg/kg/injection, schedule: Q01DX009 (sc), vehicle: clinical formulation 100 % of control | dose: 1.4 mg/kg/injection, schedule: Q01DX005 (iv), vehicle: clinical formulation 101 % of control | dose: 1.5 mg/kg/injection, schedule: Q01DX005 (iv), vehicle: saline 101 % of control | dose: 1.7 mg/kg/injection, schedule: Q01DX009 (ip), vehicle: clinical formulation 102 % of control | dose: 1.7 mg/kg/injection, schedule: Q01DX009 (sc), vehicle: clinical formulation 105 % of control | dose: 2.4 mg/kg/injection, schedule: Q01DX005 (iv), vehicle: clinical formulation 108 % of control | dose: 2.4 mg/kg/injection, schedule: Q01DX009 (ip), vehicle: clinical formulation 105 % of control | dose: 2.4 mg/kg/injection, schedule: Q01DX009 (sc), vehicle: clinical formulation 112 % of control | dose: 2.8 mg/kg/injection, schedule: Q01DX005 (iv), vehicle: clinical formulation 108 % of control and 117 % of control | dose: 3.0 mg/kg/injection, schedule: Q01DX005 (iv), vehicle: saline 114 % of control | dose: 3.6 mg/kg/injection, schedule: Q01DX009 (ip), vehicle: clinical formulation 110 % of control | dose: 3.6 mg/kg/injection, schedule: Q01DX009 (sc), vehicle: clinical formulation 119 % of control | dose: 4.0 mg/kg/injection, schedule: Q01DX005 (iv), vehicle: saline 86 % of control | dose: 4.2 mg/kg/injection, schedule: Q01DX005 (iv), vehicle: clinical formulation 123 % of control | dose: 6.3 mg/kg/injection, schedule: Q01DX005 (iv), vehicle: clinical formulation 124 % of control | dose: 7.0 mg/kg/injection, schedule: Q01DX005 (iv), vehicle: saline 87 % of control | dose: 9.4 mg/kg/injection, schedule: Q01DX005 (iv), vehicle: clinical formulation 115 % of control | dose: 14.1 mg/kg/injection, schedule: Q01DX005 (iv), vehicle: clinical formulation 113 % of control

O=NN(CCF)C(=O)NC1CCS(=O)(=O)CC1
active: dose: 4.8 mg/kg/injection, schedule: Q01DX001 (oral), vehicle: other 185 % of control and 225 % of control | dose: 6.0 mg/kg/injection, schedule: Q01DX001 (ip), vehicle: other 190 % of control and 213 % of control | dose: 11.0 mg/kg/injection, schedule: Q01DX001 (oral), vehicle: other 429 % of control and 504 % of control | dose: 12.0 mg/kg/injection, schedule: Q01DX001 (ip), vehicle: other 365 % of control and 518 % of control | dose: 21.0 mg/kg/injection, schedule: Q01DX001 (oral), vehicle: other 562 % of control and 817 % of control | dose: 24.0 mg/kg/injection, schedule: Q01DX001 (ip), vehicle: other 620 % of control and 688 % of control | dose: 40.0 mg/kg/injection, schedule: Q01DX001 (oral), vehicle: other 436 % of control and 569 % of control | dose: 48.0 mg/kg/injection, schedule: Q01DX001 (ip), vehicle: other 517 % of control and 590 % of control

O=c1[nH]cc(F)c(=O)[nH]1
active: dose: 40.0 mg/kg/injection, schedule: Q01DX005 (ip), vehicle: saline 152 % of control | dose: 50.0 mg/kg/injection, schedule: Q01DX005 (ip), vehicle: saline 183 % of control | dose: 60.0 mg/kg/injection, schedule: Q01DX005 (ip), vehicle: saline 182 % of control and 186 % of control | dose: 120.0 mg/kg/injection, schedule: Q01DX001 (ip), vehicle: water 150 % of control | dose: 150.0 mg/kg/injection, schedule: Q01DX001 (ip), vehicle: water 154 % of control | dose: 180.0 mg/kg/injection, schedule: Q01DX001 (ip), vehicle: water 180 % of control
inactive: dose: 10.0 mg/kg/injection, schedule: Q01DX005 (ip), vehicle: saline 109 % of control | dose: 20.0 mg/kg/injection, schedule: Q01DX005 (ip), vehicle: saline 120 % of control

O=NN(CCCl)C(=O)NC1C2CC3CC(C2)CC1C3 (stereo not drawn)
active: dose: 45.0 mg/kg/injection, schedule: Q01DX001 (ip), vehicle: other 160 % of control | dose: 91.0 mg/kg/injection, schedule: Q01DX001 (ip), vehicle: other 156 % of control | dose: 181.0 mg/kg/injection, schedule: Q01DX001 (ip), vehicle: other 166 % of control and 229 % of control | dose: 362.0 mg/kg/injection, schedule: Q01DX001 (ip), vehicle: other 440 % of control and 514 % of control
inactive: dose: 22.0 mg/kg/injection, schedule: Q01DX001 (ip), vehicle: other 107 % of control and 118 % of control

Nc1ccn(C2OC(COC(=O)C34CC5CC(CC(C5)C3)C4)C(O)C2O)c(=O)n1 (stereo not drawn)
active: dose: 100.0 mg/kg/injection, schedule: Q01DX001 (ip), vehicle: other 150 % of control and 178 % of control | dose: 200.0 mg/kg/injection, schedule: Q01DX001 (ip), vehicle: other 189 % of control and 215 % of control | dose: 400.0 mg/kg/injection, schedule: Q01DX001 (ip), vehicle: other 464 % of control and 281 % of control

CCOC(=O)C1CCC(NC(=O)N(CCCl)N=O)CC1 (stereo not drawn)
active: dose: 8.6 mg/kg/injection, schedule: Q04DX004 (ip), vehicle: gum acacia 274 % of control and 275 % of control | dose: 13.0 mg/kg/injection, schedule: Q04DX004 (ip), vehicle: gum acacia 254 % of control | dose: 16.0 mg/kg/injection, schedule: Q01DX001 (ip), vehicle: other 162 % of control and 193 % of control | dose: 20.0 mg/kg/injection, schedule: Q04DX004 (ip), vehicle: gum acacia 837 % of control | dose: 30.0 mg/kg/injection, schedule: Q04DX004 (ip), vehicle: gum acacia 1010 % of control | dose: 33.0 mg/kg/injection, schedule: Q01DX001 (ip), vehicle: other 465 % of control and 302 % of control | dose: 66.0 mg/kg/injection, schedule: Q01DX001 (ip), vehicle: other 663 % of control and 330 % of control
inactive: dose: 4.0 mg/kg/injection, schedule: Q01DX001 (ip), vehicle: other 113 % of control and 100 % of control | dose: 8.0 mg/kg/injection, schedule: Q01DX001 (ip), vehicle: other 116 % of control

O=P1(N(CCCl)CCCl)NCCCO1 (stereo not drawn)
inactive: dose: 28.0 mg/kg/injection, schedule: Q01DX001 (ip), vehicle: saline 106 % of control and 109 % of control
active: dose: 60.0 mg/kg/injection, schedule: Q01DX001 (ip), vehicle: saline 155 % of control and 165 % of control | dose: 64.0 mg/kg/injection, schedule: Q01DX001 (ip), vehicle: saline 169 % of control | dose: 75.0 mg/kg/injection, schedule: Q01DX001 (ip), vehicle: saline 154 % of control and 164 % of control and 171 % of control | dose: 80.0 mg/kg/injection, schedule: Q01DX001 (ip), vehicle: saline 158 % of control and 165 % of control | dose: 80.0 mg/kg/injection, schedule: Q04DX004 (ip), vehicle: saline 206 % of control | dose: 83.0 mg/kg/injection, schedule: Q01DX001 (ip), vehicle: saline 170 % of control | dose: 118.0 mg/kg/injection, schedule: Q01DX001 (ip), vehicle: saline 162 % of control and 202 % of control | dose: 120.0 mg/kg/injection, schedule: Q04DX004 (ip), vehicle: saline 285 % of control | dose: 225.0 mg/kg/injection, schedule: Q01DX001 (ip), vehicle: saline 390 % of control and 290 % of control and 304 % of control | dose: 234.0 mg/kg/injection, schedule: Q01DX001 (ip), vehicle: saline 522 % of control and 302 % of control | dose: 468.0 mg/kg/injection, schedule: Q01DX001 (ip), vehicle: saline 500 % of control

O=NN(CCCl)C(=O)NC1CS(=O)(=O)CS(=O)(=O)C1
active: dose: 8.0 mg/kg/injection, schedule: Q04DX004 (ip), vehicle: saline with Tween-80 177 % of control | dose: 12.0 mg/kg/injection, schedule: Q04DX004 (ip), vehicle: saline with Tween-80 529 % of control | dose: 18.0 mg/kg/injection, schedule: Q04DX004 (ip), vehicle: saline with Tween-80 687 % of control

O=NN(CCF)C(=O)NC1CCSCC1
active: dose: 3.7 mg/kg/injection, schedule: Q01DX001 (ip), vehicle: other 154 % of control | dose: 7.0 mg/kg/injection, schedule: Q01DX001 (ip), vehicle: other 206 % of control and 227 % of control | dose: 15.0 mg/kg/injection, schedule: Q01DX001 (ip), vehicle: other 365 % of control and 575 % of control | dose: 31.0 mg/kg/injection, schedule: Q01DX001 (ip), vehicle: other 634 % of control and 642 % of control | dose: 62.0 mg/kg/injection, schedule: Q01DX001 (ip), vehicle: other 515 % of control and 856 % of control
